Results: ChEMBL document CHEMBL1221262, “Synthesis and antituberculosis activity of new fatty acid amides” (2010)
In brackets after ≈: the same amount, converted by molar mass.

Key:
[1] = system: Mycobacterium tuberculosis; test: Antitubercular activity against rifampicin-resistant Mycobacterium tuberculosis H37Rv ATCC 35338 after 7 days by resazurin microtiter assay; assay type: functional; conditions: H37Rv ATCC 35338, 168 h
[2] = system: Mycobacterium tuberculosis; test: Antitubercular activity against isoniazid-resistant Mycobacterium tuberculosis H37Rv ATCC 35822 after 7 days by resazurin microtiter assay; assay type: functional; conditions: H37Rv ATCC 35822, 168 h

Question: Which MIC [1] does the source give for `CCCCCCCC/C=C\CCCCCCCC(=O)N1CCCCC1` here?
Answer: Its MIC is 25 µg/mL (≈ 71.5 µM).

Question: And the MIC [2]?
Answer: The MIC was 12.5 µg/mL (≈ 35.8 µM).

Question: For `CCCCCCCC/C=C\CCCCCCCC(=O)N1CCOCC1`, which MIC [1] is on record?
Answer: The MIC was 12.5 µg/mL (≈ 35.6 µM).

Question: What about the MIC [2] of the same compound?
Answer: Its MIC is 6.25 µg/mL (≈ 17.8 µM).

Question: For `CCCCCC[C@@H](O)C/C=C\CCCCCCCC(=O)NCc1ccccc1`, which MIC [1] is on record?
Answer: The MIC was 12.5 µg/mL (≈ 32.2 µM).

Question: What about the MIC [2] of the same compound?
Answer: The MIC was 12.5 µg/mL (≈ 32.2 µM).

Question: How did the MIC [1] turn out when `CCCCCC[C@@H](O)C/C=C\CCCCCCCC(=O)N[C@H](C)c1ccccc1` was run?
Answer: Its MIC is 25 µg/mL (≈ 62.2 µM).

Question: What about the MIC [2] of the same compound?
Answer: The MIC was 12.5 µg/mL (≈ 31.1 µM).

Question: With `CCCCCC[C@@H](O)C/C=C\CCCCCCCC(=O)N[C@@H](C)c1ccccc1` as the compound, how does the MIC [1] read?
Answer: Its MIC is 50 µg/mL (≈ 124 µM).

Question: And the MIC [2]?
Answer: Its MIC is 100 µg/mL (≈ 249 µM).

Question: Which results are given for `CCCCCC[C@@H](O)C/C=C\CCCCCCCC(=O)N1CCCC1`?
Answer: MIC [1]: 6.25 µg/mL (≈ 17.8 µM); MIC [2]: 6.25 µg/mL (≈ 17.8 µM)

Question: What does the source list for `CCCCCC[C@@H](O)C/C=C\CCCCCCCC(=O)N1CCOCC1`?
Answer: MIC [1]: 12.5 µg/mL (≈ 34 µM); MIC [2]: 6.25 µg/mL (≈ 17 µM)

Question: What does the source list for `CCCCC/C=C\C/C=C\CCCCCCCC(=O)N[C@H](C)c1ccccc1`?
Answer: MIC [1]: 25 µg/mL (≈ 65.2 µM); MIC [2]: 12.5 µg/mL (≈ 32.6 µM)

Question: Which MIC [1] does the source give for `CCCCC/C=C\C/C=C\CCCCCCCC(=O)N[C@@H](C)c1ccccc1` here?
Answer: The MIC was 12.5 µg/mL (≈ 32.6 µM).

Question: What about the MIC [2] of the same compound?
Answer: The MIC was 6.25 µg/mL (≈ 16.3 µM).

Question: How did the MIC [1] turn out when `CCCCC/C=C\C/C=C\CCCCCCCC(=O)N1CCCC1` was run?
Answer: The MIC was 12.5 µg/mL (≈ 37.5 µM).

Question: And the MIC [2]?
Answer: Its MIC is 12.5 µg/mL (≈ 37.5 µM).

Question: With `CCCCCCCCCCCCCCCC(=O)N[C@H](C)c1ccccc1` as the compound, how does the MIC [1] read?
Answer: The MIC was over 100 µg/mL.

Question: And the MIC [2]?
Answer: Its MIC is over 100 µg/mL.

Question: With `CCCCCCCCCCCCCCCC(=O)N[C@@H](C)c1ccccc1` as the compound, how does the MIC [1] read?
Answer: The MIC was over 100 µg/mL.

Question: And the MIC [2]?
Answer: Its MIC is over 100 µg/mL.

Question: `CCCCCCCCCCCCCCCC(=O)N1CCCC1` was tested. Which MIC [1] did it give?
Answer: Its MIC is 25 µg/mL (≈ 80.8 µM).

Question: What about the MIC [2] of the same compound?
Answer: The MIC was 25 µg/mL (≈ 80.8 µM).

Question: Which MIC [1] does the source give for `CCCCCCCCCCCCCCCC(=O)N1CCCCC1` here?
Answer: The MIC was 25 µg/mL (≈ 77.3 µM).

Question: What about the MIC [2] of the same compound?
Answer: The MIC was 25 µg/mL (≈ 77.3 µM).

Question: Which results are given for `CCCCCCCCCCCCCCCCCC(=O)N[C@H](C)c1ccccc1`?
Answer: MIC [1]: > 100 µg/mL; MIC [2]: > 100 µg/mL

Question: For `CCCCCCCCCCCCCCCCCC(=O)N[C@@H](C)c1ccccc1`, which MIC [1] is on record?
Answer: The MIC was over 100 µg/mL.

Question: And the MIC [2]?
Answer: The MIC was over 100 µg/mL.

Question: `CCCCCCCC/C=C\CCCCCCCC(=O)NCc1ccccc1` was tested. Which MIC [2] did it give?
Answer: The MIC was 100 µg/mL (≈ 269 µM).

Question: With `CCCCCCCC/C=C\CCCCCCCC(=O)N[C@H](C)c1ccccc1` as the compound, how does the MIC [1] read?
Answer: Its MIC is 50 µg/mL (≈ 130 µM).

Question: What about the MIC [2] of the same compound?
Answer: The MIC was 12.5 µg/mL (≈ 32.4 µM).

Question: How did the MIC [1] turn out when `CCCCCCCC/C=C\CCCCCCCC(=O)NC(C)c1ccccc1` (configuration not stated) was run?
Answer: The MIC was 100 µg/mL (≈ 259 µM).

Question: `CCCCCCCC/C=C\CCCCCCCC(=O)N1CCCC1` was tested. Which MIC [1] did it give?
Answer: Its MIC is 12.5 µg/mL (≈ 37.2 µM).

Question: What about the MIC [2] of the same compound?
Answer: Its MIC is 6.25 µg/mL (≈ 18.6 µM).

Question: For `CCCCCCCC/C=C\CCCCCCCC(=O)NCCO` [OLEOYLETHANOLAMIDE], which MIC [1] is on record?
Answer: The MIC was 25 µg/mL (≈ 76.8 µM).

Question: And the MIC [2]?
Answer: Its MIC is 12.5 µg/mL (≈ 38.4 µM).

Question: What does the source list for `CCCCCCCCCCCCCCCC(=O)NCCO` [PALMIDROL]?
Answer: MIC [1]: > 100 µg/mL; MIC [2]: > 100 µg/mL
